Experimental findings from US10610602B2, “Tumor cell-specific responsive self-assembling drug nanoconjugate” (KOREA INSTITUTE OF SCIENCE AND TECHNOLOGY, priority 2017, dated 2020) are described below.

“Also recorded” adds a separate entry of the source. Where two headings read alike, the source gives them in different places. Residues, ends and D or L forms follow the SMILES beside them. No end group written: not given here. *: point of attachment. Doxorubicin(3'-N) = COc1cccc2c1C(=O)c1c(O)c3c(c(O)c1C2=O)C[C@@](O)(C(=O)CO)C[C@@H]3O[C@H]1C[C@H](N*)[C@H](O)[C@H](C)O1

Data set [1] has as its system HT29 tumor. As to the kind of experiment: Doxorubicin accumulation in tumor tissues after intravenous administration, near-infrared fluorescence. As to the method:
In this example, the in vivo anticancer effects of doxorubicin (Free DOX) and FRRG-DOX (SEQ ID NO: 7) of Example 1 were investigated. First, 1×10^7 HT-29 cells were directly injected into the right flank of each tumor animal model constructed in 1) (n=4 per group). When the tumor size reached ˜250-300 mm3, doxorubicin (Free DOX, 5 mg/kg) and FRRG DOX (SEQ ID NO: 7) of Example 1 (5 mg/kg) were administered intravenously once every three days for 15 days.
(§1) The therapeutic efficacies of Free DOX, FRRG-DOX (SEQ ID NO: 7), and the control were compared by measuring the tumor volumes (maximum diameter×minimum diameter 2×0.53) for 15 days. The viabilities and weights of the tumor animal models were measured once a day for 15 days. The accumulations of Free DOX and FRRG-DOX (SEQ ID NO: 7) in the tumor tissues of the tumor animal models were monitored using IVIS Lumina Series III (PerkinElmer, Massachusetts, USA). The fluorescence intensities of Free DOX and FRRG-DOX (SEQ ID NO: 7) in the tumor tissues were quantified using the Living Image software (PerkinElmer, Massachusetts, USA).

The next data set relates to hiPSC-CMs. The data set can be described thus: Multi-electrode array (MEA) analysis. It counts as cell-based, human. Particulars: FRRG-DOX 0.2 μM; doxorubicin 0.1 μM; compared to the baseline. As to the method:
Multi-electrode array analysis was conducted by the following procedure. First, human induced pluripotent stem cell-derived cardiomyocytes (hiPSC-CMs, Cellular Dynamics International [CDI], Madison, Wis., USA) were thawed in a 100 mm culture dish. After 1 week, the thawed hiPSC-CMs were plated in an MEA plate coated with fibronectin solution (50 μg/ml). On day 2 after thawing, the plating medium was replaced with a maintenance medium (CDI). Maintenance media were replaced with new ones every 2-3 days. Only 50% of the culture media were replaced with new ones. 2 weeks after plating in the plate, field potentials of spontaneously beating cardiomyocytes were recorded using a Maestro system (Axion Biosystems Inc., Atlanta, Ga., USA). The waveforms of the extracellular field potentials were recorded 10 min after the equilibration period. Inter-spike interval and extracellular field potential duration (FPD) were analyzed and quantified. To minimize the influence of the beat rate on FPD, corrected FPD (FPDcF) was calculated using Fridericia's formula 1: FPDcF=FPD/[inter−spike interval]1/3 (1)

For data set [2] the following is noted: rat, in vivo.
The test system of data set [3] is HT29 tumor. Particulars: for viability (survival rate) of animal tumor models: for 16 days, FIG. 4C; for apoptosis in organ tissues (annexin V staining): heart, spleen, tumor tissues, FIG. 4D. As to the method:
In this example, the in vivo anticancer effects of doxorubicin (Free DOX) and FRRG-DOX (SEQ ID NO: 7) of Example 1 were investigated. First, 1×10^7 HT-29 cells were directly injected into the right flank of each tumor animal model constructed in 1) (n=4 per group). When the tumor size reached ˜200 mm^3, doxorubicin (Free DOX, 5 mg/kg) and FRRG DOX (SEQ ID NO: 7) of Example 1 (5 mg/kg) were administered by tail vein injection once every three days for 15 days.
as §1
Annexin V staining was performed to confirm that apoptosis occurred in tumor tissues excised from the tumor animal models. First, section slides (10 μm) of the excised tumor tissues were washed three times with DPBS, incubated with annexin V solution (200 μl of a binding buffer containing 5 μl of annexin V-Cy5.5) at 37° C. for 20 min, incubated with DAPI at room temperature for 15 min, placed on cover glass, and observed under a confocal laser microscope.

The nature of data set [4]: Non-enzymatic hydrolysis in PBS buffer only, HPLC. It counts as physicochemical. Conditions: 37° C., 9 h. As to the method:
The drug conjugate of Example 1 was allowed to react with other enzymes (10 μg/ml cathepsins D, E, and L) and PBS buffer only (in this case, a non-enzymatic hydrolysis product was obtained) and the reaction products were analyzed by HPLC at 37° C. for 9 h.

Data set [5] concerns H9C2 cells (normal cells). It counts as cell-based, Rattus. On the procedure:
(§2) First, HT-29 cells were plated in a 96-well plate at a density of 1×10^4 cells/well. […] Then, […] of CCK solution was added to each well. After further culture for 30 min, the absorbance of each 96-well plate at 450 nm was analyzed using a microplate reader (VERSAmax™, Molecular Devices Corp., Sunnyvale, Calif.). For comparison, the cell viabilities (%) of H9C2 cells (normal cells) were measured in the same manner as described above.

Data set [6] can be described thus: Electrocardiography (ECG) analysis. It is filed as in vivo, ICR mice. Conditions: intravenous; 5 mg/kg doxorubicin or 10 mg/kg FRRG-doxorubicin; versus control. On the procedure: ECG analysis was performed under the approval of the Institutional Animal Care and Use Committee at the Korea Institute of Toxicology. All procedures were performed according to the National Institutes of Health guidelines for the care and use of laboratory animals. A mixture of isoflourane and oxygen as an anaesthetic gas was injected at a rate of 2 cc/min to ICR mice (25-35 g, Orient Bio Inc., Seoul, Korea). ECG was measured before injection of the anaesthetic gas into an animal bio amp (ADinstruments Pty Ltd, Bella Vista, Australia). The measured ECG was defined as baseline. For 6 h after injection of the anaesthetic gas, ECG was measured. All mice were injected intravenously with saline, 5 mg/kg doxorubicin (in saline) or 10 mg/kg FRRG-doxorubicin (SEQ ID NO: 7) (Example 1) (in saline). The measured ECG data were analyzed using the LabChart 8 software (ADinstruments Pty Ltd, Bella Vista, Australia). Corrected QT (QTc) was calculated using Van de Water's formula 2 and Bazett's formula 3: QTc−V=0.087[(60/HR)−1] (2) QTc−B=QT/(RR)1/2 (3)

Data set [7] is described as follows: Heart damage markers in blood samples. Particulars: versus control (saline), FIG. 4E.
Data set [8] in a line: Nanoparticle size by dynamic light scattering. It is filed as physicochemical. Particulars: FIG. 5B. On the procedure: The size distribution was measured using Zetasizer Nano ZS (Malvern Instruments, Worcestershire, U.K).
The next data set has as its system cells. As to the kind of experiment: Cellular and nuclear uptake of drug conjugates of Examples 2-4, confocal microscopy. It is filed as cell-based. Conditions: for absorption into cells / antitumor effects or intracellular uptake effects: FIGS. 5C and 5D. The text has this: In FIG. 5D, “Cytosol “and “Nucleus” indicate the fluorescence intensities of DOX measured in cytosol and cell nuclei, respectively.

A further data set concerns HT-29 cells. As to the kind of experiment: In vitro cell viability (CCK). It is filed as cell-based, human. Particulars: HT29, FIG. 5E. As to the method: as §2
[9] abbreviates: 5 mg/kg tail vein once every three days for 15 days.
Where [10] appears, read: intravenous, DAPI-stained tissue sections, FIG. 3G.

In the case of `COc1cccc2c1C(=O)c1c(O)c3c(c(O)c1C2=O)C[C@@](O)(C(=O)CO)C[C@@H]3O[C@H]1C[C@H](NC(=O)CNC(=O)[C@H](CCCNC(=N)N)NC(=O)[C@H](CCCNC(=N)N)NC(=O)[C@H](Cc2ccccc2)NC(C)=O)[C@H](O)[C@H](C)O1` [FRRG-DOX] (Ac-FRRG-{Doxorubicin(3'-N)}), the “doxorubicin accumulation in tumor tissues” value (from here on “doxorubicin accumulation”) in the data set on HT29 tumor [1] (mouse, in vivo, iv) is recorded as “doxorubicin was accumulated in the tumor tissues”. Besides, in the data set with hiPSC-CMs, the FPD result is on record as “remained substantially unchanged” and the FPDcF result is listed as “remained substantially unchanged”. For the same compound, the “levels of markers indicative of heart damage (hs troponin-T, Troponin-I, CK-MM, CPK total)” value in [2] was “about two times lower than or comparable to those in the control”. Moreover, the “toxicity to normal cells in tumor animal models” value with HT29 tumor [3] (setting [9]) was “no toxicity was observed”. In addition, in the data set with HT29 tumor [3], the “viability (survival rate) of animal tumor models” value was 100% and the “apoptosis in organ tissues (annexin V staining)” value was “apoptosis was observed only in the tumor tissues”. In addition, the “stability in phosphate buffered saline” value in data set [4] is recorded as “very stable in phosphate buffered saline”. The “cell viability compared with group treated with doxorubicin alone (Free DOX)” value in data set [5] was “significant difference in cell viability”.
On to `COc1cccc2c1C(=O)c1c(O)c3c(c(O)c1C2=O)C[C@@](O)(C(=O)CO)C[C@@H]3O[C@H]1C[C@H](NC(=O)CNC(=O)[C@H](CCCNC(=N)N)NC(=O)[C@H](CCCNC(=N)N)NC(C)=O)[C@H](O)[C@H](C)O1` [RRG-DOX], for which, in the data set on HT29 tumor [1] (5 mg/kg intravenous, FIG. 3E/3F), the “fluorescence intensity of doxorubicin in excised tumor tissues” value was “low fluorescence intensity”. Further, in the data set with HT29 tumor [1] (setting [10]), the “doxorubicin accumulation” value was “could not be effectively accumulated in tissues”.
As for `COc1cccc2c1C(=O)c1c(O)c3c(c(O)c1C2=O)C[C@@](O)(C(=O)CO)C[C@@H]3O[C@H]1C[C@H](N)[C@H](O)[C@H](C)O1` [doxorubicin], in the data set on HT29 tumor [1] (setting [10]), the “doxorubicin accumulation” value is “could not be effectively accumulated in tissues”. In addition, in the data set on hiPSC-CMs, the FPD result was “significantly low compared to the baseline” and the FPDcF result is on record as “significantly low compared to the baseline”. In addition, the QTc values entry in [6] is on record as “extended compared to those measured in the control”. Besides, the “levels of markers indicative of heart damage (hs troponin-T, Troponin-I, CK-MM, CPK total)” value in [7] is listed as “higher levels of all markers”. Besides, the “weight of the tumor animal models” value with HT29 tumor [3] (5 mg/kg tail vein once every three days) is “began to decrease”. Further, in the data set with HT29 tumor [3] (setting [9]), the “inhibition of tumor growth (tumor volume)” value is listed as “significantly inhibit tumor growth” and the “toxicity to normal cells in tumor animal models” value is “Toxicity to normal cells was observed”. Further, in the data set on HT29 tumor [3], the “viability (survival rate) of animal tumor models” value is “mortality began to increase rapidly”; the “apoptosis in organ tissues (annexin V staining)” value was “apoptosis was observed in all of the heart, spleen, and tumor tissues”.
For the compound FRRGGGGG-DOX (FRRGGGGG-doxorubicin), the “measured sizes of the nanoparticles” value in [8] is 300-700 nm. Also, in the data set on cells, the absorption into cells entry is recorded as “not readily absorbed into cells” and the “antitumor effects or intracellular uptake effects” value is recorded as “showed antitumor effects or intracellular uptake effects”.
For GGFRRGGG-DOX (GGFRRGGG-doxorubicin), in [8], the “measured sizes of the nanoparticles” value is listed as 50-200 nm. Further, the “uptake into cell nuclei relative to drug conjugates of Examples 1 and 2” value in the data set with cells (FIG. 5D) was determined as 10 times lower. Besides, in the data set on cells, the absorption into cells entry was “readily absorbed into cells” and the “antitumor effects or intracellular uptake effects” value is “showed antitumor effects or intracellular uptake effects”.
Turning to GGGGFRRG-DOX (GGGGFRRG-doxorubicin), in the data set with HT-29 cells, the “antitumor effect (cell viability of HT29)” value is given as “same antitumor effect as DOX; also recorded: most effective in antitumor action”. Moreover, in [8], the “measured sizes of the nanoparticles” value was 200-600 nm. Moreover, the “antitumor effects or intracellular uptake effects” value in the data set with cells was “showed antitumor effects or intracellular uptake effects”.
